According to PubChem BioAssay (NCI):
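Values below derive from 48-hour exposures of cells grown in 96-well plates, with endpoints linearly interpolated between the two concentrations bracketing the appropriate inhibition level. TGI: concentration producing complete growth inhibition.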

What was measured:
Test in all cases: NCI tumour cell line growth inhibition, 48 h
K-562 leukemia = tested on: K-562 leukemia
HT29 colon = tested on: HT29 colon
NCI-H522 lung = tested on: NCI-H522 lung
PC-3 prostate = tested on: PC-3 prostate
MDA-MB-435 = tested on: MDA-MB-435
SNB-19 CNS = tested on: SNB-19 CNS
SF-268 CNS = tested on: SF-268 CNS
A498 renal = tested on: A498 renal
NCI-H23 lung = tested on: NCI-H23 lung
UACC-257 melanoma = tested on: UACC-257 melanoma
IGROV1 ovarian = tested on: IGROV1 ovarian
HCC-2998 colon = tested on: HCC-2998 colon
BT-549 breast = tested on: BT-549 breast
U251 CNS = tested on: U251 CNS
TK-10 renal = tested on: TK-10 renal
CAKI-1 renal = tested on: CAKI-1 renal
UACC-62 melanoma = tested on: UACC-62 melanoma
NCI-H460 lung = tested on: NCI-H460 lung
MALME-3M melanoma = tested on: MALME-3M melanoma
786-0 renal = tested on: 786-0 renal
KM12 colon = tested on: KM12 colon
A549 NSCLC = tested on: A549 NSCLC
SN12C renal = tested on: SN12C renal
T-47D breast = tested on: T-47D breast
CCRF-CEM leukemia = tested on: CCRF-CEM leukemia
ACHN renal = tested on: ACHN renal
HCT-15 colon = tested on: HCT-15 colon
DU-145 prostate = tested on: DU-145 prostate
SK-MEL-5 melanoma = tested on: SK-MEL-5 melanoma
SK-MEL-28 melanoma = tested on: SK-MEL-28 melanoma
HOP-92 NSCLC = tested on: HOP-92 NSCLC
OVCAR-4 ovarian = tested on: OVCAR-4 ovarian
HCT-116 colon = tested on: HCT-116 colon
LOX IMVI melanoma = tested on: LOX IMVI melanoma
MDA-N = tested on: MDA-N
NCI/ADR-RES ovarian = tested on: NCI/ADR-RES ovarian
SNB-75 CNS = tested on: SNB-75 CNS
RPMI-8226 leukemia = tested on: RPMI-8226 leukemia
COLO 205 colon = tested on: COLO 205 colon
SW-620 colon = tested on: SW-620 colon
NCI-H226 lung = tested on: NCI-H226 lung
MDA-MB-231 breast = tested on: MDA-MB-231 breast
SR leukemia = tested on: SR leukemia
OVCAR-8 ovarian = tested on: OVCAR-8 ovarian
SK-MEL-2 melanoma = tested on: SK-MEL-2 melanoma
UO-31 renal = tested on: UO-31 renal
HS 578T breast = tested on: HS 578T breast
HOP-62 NSCLC = tested on: HOP-62 NSCLC
EKVX NSCLC = tested on: EKVX NSCLC
OVCAR-5 ovarian = tested on: OVCAR-5 ovarian
HL-60(TB) leukemia = tested on: HL-60(TB) leukemia
MOLT-4 leukemia = tested on: MOLT-4 leukemia
SF-295 CNS = tested on: SF-295 CNS
MCF7 breast = tested on: MCF7 breast
SK-OV-3 ovarian = tested on: SK-OV-3 ovarian
OVCAR-3 ovarian = tested on: OVCAR-3 ovarian
SF-539 CNS = tested on: SF-539 CNS
RXF 393 renal = tested on: RXF 393 renal
M14 melanoma = tested on: M14 melanoma

For CN(C)CCN1C(=O)N(CCN(C)C)c2c3cc(O)ccc3nc3c([N+](=O)[O-])ccc1c23, the TGI (K-562 leukemia) was 14.5 µM, the TGI (HT29 colon) was 20.1 µM and the TGI (NCI-H522 lung) was 33.3 µM. For the same compound, the TGI (PC-3 prostate) was 75 µM, the TGI (MDA-MB-435) was 32.9 µM and the TGI (SNB-19 CNS) was 24.2 µM. For the same compound, the TGI (SF-268 CNS) was 26.7 µM, the TGI (A498 renal) was 29.6 µM and the TGI (NCI-H23 lung) was 36.6 µM. For the same compound, the TGI (UACC-257 melanoma) was 29.2 µM, the TGI (IGROV1 ovarian) was 13.6 µM and the TGI (HCC-2998 colon) was 25.8 µM. It also gave a TGI (BT-549 breast) of 40.6 µM, a TGI (U251 CNS) of 24.4 µM and a TGI (TK-10 renal) of 33.6 µM. The TGI (CAKI-1 renal) was 47.9 µM, the TGI (UACC-62 melanoma) was 30.8 µM and the TGI (NCI-H460 lung) was 26.4 µM. The TGI (MALME-3M melanoma) was 29.6 µM, the TGI (786-0 renal) was 19 µM and the TGI (KM12 colon) was 23.3 µM. It also gave a TGI (A549 NSCLC) of 35.5 µM, a TGI (SN12C renal) of 23.6 µM and a TGI (T-47D breast) of 39.2 µM. It also gave a TGI (CCRF-CEM leukemia) of 20 µM, a TGI (ACHN renal) of 19.1 µM and a TGI (HCT-15 colon) of 20.8 µM. It also gave a TGI (DU-145 prostate) of 27 µM, a TGI (SK-MEL-5 melanoma) of 26.8 µM and a TGI (SK-MEL-28 melanoma) of 58.5 µM. For the same compound, the TGI (HOP-92 NSCLC) was 37.3 µM, the TGI (OVCAR-4 ovarian) was 28.4 µM and the TGI (HCT-116 colon) was 17.1 µM. The TGI (LOX IMVI melanoma) was 24.3 µM, the TGI (MDA-N) was 26.7 µM and the TGI (NCI/ADR-RES ovarian) was 86.3 µM. The TGI (SNB-75 CNS) was 44.9 µM, the TGI (RPMI-8226 leukemia) was 42.4 µM and the TGI (COLO 205 colon) was 23.3 µM. For the same compound, the TGI (SW-620 colon) was 24.7 µM, the TGI (NCI-H226 lung) was 30.5 µM and the TGI (MDA-MB-231 breast) was 25.4 µM. For the same compound, the TGI (SR leukemia) was 0.807 µM, the TGI (OVCAR-8 ovarian) was 36 µM and the TGI (SK-MEL-2 melanoma) was 59.1 µM. It also gave a TGI (UO-31 renal) of 33.9 µM and a TGI (HS 578T breast) of 45.8 µM.
In the case of COc1ccc2c(c1)CCC(CN1CCN(CCOC(c3ccccc3)c3ccccc3)CC1)C2O (stereo not given), the TGI (K-562 leukemia) is reported as 44.1 µM, the TGI (HT29 colon) is reported as 18.2 µM and the TGI (NCI-H522 lung) is reported as 31 µM. For the same compound, the TGI (PC-3 prostate) was 26.3 µM, the TGI (HOP-62 NSCLC) was 38.3 µM and the TGI (MDA-MB-435) was 32 µM. It also gave a TGI (SNB-19 CNS) of 33.6 µM, a TGI (EKVX NSCLC) of 24.4 µM and a TGI (SF-268 CNS) of 31.5 µM. For the same compound, the TGI (A498 renal) was 23.1 µM, the TGI (NCI-H23 lung) was 28.9 µM and the TGI (UACC-257 melanoma) was 27.2 µM. The TGI (OVCAR-5 ovarian) was 30.5 µM, the TGI (HL-60(TB) leukemia) was 15.2 µM and the TGI (IGROV1 ovarian) was 30.1 µM. It also gave a TGI (MOLT-4 leukemia) of 35.7 µM, a TGI (SF-295 CNS) of 36 µM and a TGI (HCC-2998 colon) of 16.1 µM. It also gave a TGI (BT-549 breast) of 27.1 µM, a TGI (U251 CNS) of 28 µM and a TGI (TK-10 renal) of 28.6 µM. For the same compound, the TGI (MCF7 breast) was 37.5 µM, the TGI (CAKI-1 renal) was 31.5 µM and the TGI (UACC-62 melanoma) was 26.7 µM. The TGI (NCI-H460 lung) was 35.8 µM, the TGI (MALME-3M melanoma) was 32.4 µM and the TGI (786-0 renal) was 32.6 µM. It also gave a TGI (SK-OV-3 ovarian) of 35.8 µM, a TGI (KM12 colon) of 44.6 µM and a TGI (A549 NSCLC) of 36 µM. For the same compound, the TGI (SN12C renal) was 26.8 µM, the TGI (T-47D breast) was 47.8 µM and the TGI (CCRF-CEM leukemia) was 53.4 µM. The TGI (ACHN renal) was 25.6 µM, the TGI (HCT-15 colon) was 23 µM and the TGI (DU-145 prostate) was 38.9 µM. The TGI (SK-MEL-5 melanoma) was 21.9 µM, the TGI (SK-MEL-28 melanoma) was 31.9 µM and the TGI (OVCAR-3 ovarian) was 31.8 µM. For the same compound, the TGI (HOP-92 NSCLC) was 28.5 µM, the TGI (OVCAR-4 ovarian) was 33.2 µM and the TGI (HCT-116 colon) was 24.8 µM. The TGI (LOX IMVI melanoma) was 32.5 µM, the TGI (MDA-N) was 28.1 µM and the TGI (NCI/ADR-RES ovarian) was 27.4 µM. It also gave a TGI (SF-539 CNS) of 26.4 µM, a TGI (SNB-75 CNS) of 34.5 µM and a TGI (RPMI-8226 leukemia) of 35.3 µM. For the same compound, the TGI (COLO 205 colon) was 27.7 µM, the TGI (SW-620 colon) was 60.1 µM and the TGI (NCI-H226 lung) was 34.1 µM. It also gave a TGI (MDA-MB-231 breast) of 29.7 µM, a TGI (SR leukemia) of 69.8 µM and a TGI (OVCAR-8 ovarian) of 28.9 µM. For the same compound, the TGI (RXF 393 renal) was 29.3 µM, the TGI (SK-MEL-2 melanoma) was 33 µM and the TGI (M14 melanoma) was 29.1 µM. The TGI (UO-31 renal) was 30 µM and the TGI (HS 578T breast) was 41.3 µM.
Compound Brc1ccc2[nH]cc(-c3csc(-c4c[nH]c5ccc(Br)cc45)n3)c2c1 has a TGI (K-562 leukemia) of 3.43 µM, a TGI (HT29 colon) of 3.16 µM and a TGI (NCI-H522 lung) of 3.39 µM. For the same compound, the TGI (PC-3 prostate) was 4.44 µM, the TGI (HOP-62 NSCLC) was 13.7 µM and the TGI (MDA-MB-435) was 5.79 µM. It also gave a TGI (SNB-19 CNS) of 7.61 µM, a TGI (EKVX NSCLC) of 3.93 µM and a TGI (SF-268 CNS) of 6.12 µM. It also gave a TGI (A498 renal) of 6.03 µM, a TGI (NCI-H23 lung) of 6.34 µM and a TGI (UACC-257 melanoma) of 9.05 µM. For the same compound, the TGI (OVCAR-5 ovarian) was 5.6 µM, the TGI (HL-60(TB) leukemia) was 12.7 µM and the TGI (IGROV1 ovarian) was 4.6 µM. For the same compound, the TGI (MOLT-4 leukemia) was 3.45 µM, the TGI (SF-295 CNS) was 6.32 µM and the TGI (HCC-2998 colon) was 3.26 µM. It also gave a TGI (BT-549 breast) of 18 µM, a TGI (U251 CNS) of 3.61 µM and a TGI (TK-10 renal) of 8.19 µM. For the same compound, the TGI (MCF7 breast) was 12.9 µM, the TGI (CAKI-1 renal) was 5.31 µM and the TGI (UACC-62 melanoma) was 4.09 µM. The TGI (NCI-H460 lung) was 3.43 µM, the TGI (MALME-3M melanoma) was 3.99 µM and the TGI (786-0 renal) was 3.49 µM. The TGI (SK-OV-3 ovarian) was 8.09 µM, the TGI (KM12 colon) was 2.95 µM and the TGI (A549 NSCLC) was 7 µM. It also gave a TGI (SN12C renal) of 10.3 µM, a TGI (T-47D breast) of 12.2 µM and a TGI (CCRF-CEM leukemia) of 3.93 µM. The TGI (ACHN renal) was 4.8 µM, the TGI (HCT-15 colon) was 4.5 µM and the TGI (DU-145 prostate) was 6.89 µM. The TGI (SK-MEL-5 melanoma) was 3.14 µM, the TGI (SK-MEL-28 melanoma) was 5.31 µM and the TGI (OVCAR-3 ovarian) was 6.95 µM. For the same compound, the TGI (HOP-92 NSCLC) was 4.64 µM, the TGI (OVCAR-4 ovarian) was 7.59 µM and the TGI (HCT-116 colon) was 3.26 µM. For the same compound, the TGI (LOX IMVI melanoma) was 3.21 µM, the TGI (MDA-N) was 5.95 µM and the TGI (NCI/ADR-RES ovarian) was 6.29 µM. The TGI (SF-539 CNS) was 2.9 µM, the TGI (SNB-75 CNS) was 7.27 µM and the TGI (RPMI-8226 leukemia) was 3.4 µM. It also gave a TGI (COLO 205 colon) of 3.42 µM, a TGI (SW-620 colon) of 4.42 µM and a TGI (NCI-H226 lung) of 5.1 µM. The TGI (MDA-MB-231 breast) was 3.38 µM, the TGI (SR leukemia) was 2.99 µM and the TGI (OVCAR-8 ovarian) was 7.22 µM. It also gave a TGI (RXF 393 renal) of 6.13 µM, a TGI (SK-MEL-2 melanoma) of 3.81 µM and a TGI (M14 melanoma) of 2.87 µM. It also gave a TGI (UO-31 renal) of 7.27 µM and a TGI (HS 578T breast) greater than 20.8 µM.
